From patent publication US20130165520A1, “Hybrid Molecule Having Mixed Retinoic Acid Receptor Agonism and Histone Deacetylase Inhibitory Properties” (priority 2010, published 2013)

Experiments:
HCT-116 = HCT-116 (Colon); 48 h
MDA-MB-435 = MDA-MB-435 (Melanoma); 48 h
UO-31 = UO-31 (Renal); 48 h
OVCAR-4 = test: cells; settings: Homo sapiens, OVCAR-4, 48 h
T-47D = test: cells; settings: Homo sapiens, T47D, 48 h
NCI-H522 = test: cells; settings: Homo sapiens, NCI-H522, 48 h
UACC-62 = UACC-62 (Melanoma); 48 h
MDA-MB-468 = test: cells; settings: Homo sapiens, MDA-MB-468, 48 h
SF-539 = SF-539 (CNS); 48 h
KM12 = KM12 (Colon); 48 h
SW-620 = SW-620 (Colon); 48 h
A498 [1] = settings: A498 (Renal); 48 h
HCT-15 = test: cells; settings: Homo sapiens, HCT-15, 48 h
CAKI-1 = test: cells; settings: Homo sapiens, CAKI-1, 48 h
SF-295 = test: cells; settings: Homo sapiens, SF-295, 48 h
NCI-H23 = NCI-H23 (Non-Small cell lung cancer); 48 h
HS578T [2] = test: cells; settings: Homo sapiens, Hs-578T, 48 h
M14 = test: cells; settings: Homo sapiens, M14, 48 h
HL-60(TB) [3] = settings: HL-60(TB) (Leukemia); 48 h
HT29 = test: cells; settings: Homo sapiens, HT-29, 48 h
A498 [4] = test: cells; settings: Homo sapiens, A498, 48 h
HOP-62 = test: cells; settings: Homo sapiens, HOP-62, 48 h
SK-MEL-28 = SK-MEL-28 (Melanoma); 48 h
OVCAR-5 = test: cells; settings: Homo sapiens, OVCAR-5, 48 h
[5] = tested on: RAR target genes in MDA-MB-231 cell line; test: RT-qPCR analysis of RAR and HDACi target genes; type: cell-based
Excerpt: The agonist activity of 3 through its effects on RAR target genes was subsequently analyzed (FIG. 3).

SK-MEL-5 = test: cells; settings: Homo sapiens, SK-MEL-5, 48 h
PC-3 = test: cells; settings: Homo sapiens, PC-3, 48 h
SN12C = test: cells; settings: Homo sapiens, 48 h
RXF393 [6] = settings: RXF393 (Renal); 48 h
RXF393 [7] = test: cells; settings: Homo sapiens, RXF 393, 48 h
HL-60(TB) [8] = test: cells; settings: Homo sapiens, HL-60, 48 h
HS578T [9] = settings: HS578T (Breast); 48 h
HCC-2998 = test: cells; settings: Homo sapiens, HCC 2998, 48 h
NCI/ADR-RES = settings: 48 h
OVCAR-3 = settings: 48 h
A549/ATCC = test: cells; settings: Homo sapiens, A549, 48 h
MDA-MB-231/ATCC = test: cells; settings: Homo sapiens, MDA-MB-231, 48 h

Question: What does the source list for CC1(C)CCC(C)(C)c2cc(-c3ccc4cc(C(=O)NO)ccc4c3)ccc21 [hybrid 3]?
Answer: TGI (HCT-116): 1.5 µM; TGI (MDA-MB-435): 2.54 µM; TGI (UO-31): 1.61 µM; GI50 (OVCAR-4): 0.533 µM; CC50 (OVCAR-4; read-out: LC50): 29.1 µM; GI50 (T-47D): 1.27 µM; CC50 (T-47D; read-out: LC50): 28 µM; GI50 (NCI-H522): 1.62 µM; CC50 (NCI-H522; read-out: LC50): 7.98 µM; TGI (UACC-62): 1.86 µM; GI50 (MDA-MB-468): 1.18 µM; CC50 (MDA-MB-468; read-out: LC50): 6.39 µM; TGI (SF-539): 7.26 µM; TGI (KM12): 1.88 µM; TGI (SW-620): 1.94 µM; TGI (A498 [1]): 3.8 µM; GI50 (HCT-15): 0.381 µM; CC50 (HCT-15; read-out: LC50): 9.38 µM; GI50 (CAKI-1): 0.302 µM; CC50 (CAKI-1; read-out: LC50): 4.31 µM; GI50 (SF-295): 0.385 µM; CC50 (SF-295; read-out: LC50): 6.11 µM; TGI (NCI-H23): 2.43 µM; GI50 (HS578T [2]): 3.02 µM; CC50 (HS578T [2]; read-out: LC50): 64.8 µM; GI50 (M14): 0.708 µM; CC50 (M14; read-out: LC50): 7.43 µM; TGI (HL-60(TB) [3]): 1.52 µM; GI50 (HT29): 0.575 µM; CC50 (HT29; read-out: LC50): 7.6 µM; GI50 (A498 [4]): 1.66 µM; CC50 (A498 [4]; read-out: LC50): 8.71 µM; GI50 (HOP-62): 0.616 µM; CC50 (HOP-62; read-out: LC50): 6.18 µM; TGI (SK-MEL-28): 5.5 µM; GI50 (OVCAR-5): 4.12 µM; CC50 (OVCAR-5; read-out: LC50): 46.1 µM; regulation of HDACi-regulated genes RARB1 and CyclinD1 ([5]; MDA-MB-231): follow similar regulation; induction of RAR target genes (RT-qPCR) ([5]; MDA-MB-231 cell line): clear induction of RARB2 and DHRS3; GI50 (SK-MEL-5): 0.977 µM; CC50 (SK-MEL-5; read-out: LC50): 5.37 µM; GI50 (PC-3): 1.14 µM; CC50 (PC-3; read-out: LC50): 21.5 µM; GI50 (SN12C): 1.05 µM; CC50 (SN12C; read-out: LC50): 5.34 µM; TGI (RXF393 [6]): 2.82 µM; GI50 (RXF393 [7]): 1.26 µM; CC50 (RXF393 [7]; read-out: LC50): 6.27 µM; GI50 (HL-60(TB) [8]): 0.353 µM; CC50 (HL-60(TB) [8]; read-out: LC50): 7.66 µM; TGI (HS578T [9]): 11.8 µM; GI50 (HCC-2998): 1.09 µM; CC50 (HCC-2998; read-out: LC50): 5.75 µM; TGI (NCI/ADR-RES): 1.76 µM; TGI (OVCAR-3): 1.88 µM; GI50 (A549/ATCC): 0.473 µM; CC50 (A549/ATCC; read-out: LC50): 7.8 µM; GI50 (MDA-MB-231/ATCC): 1.2 µM; CC50 (MDA-MB-231/ATCC; read-out: LC50): 12 µM
